Laboratory results taken from BindingDB's records for doi:10.1016/s0960-894x(02)00954-x (A.P.S. University, 2003).

Target: Carbonic anhydrase 2 (Homo sapiens, UniProt P00918)
Experiment: Inhibition of human carbonic anhydrase II (CAII)

Ki: 400 nM
Structure (SMILES): NS(=O)(=O)c1cccc(N2C(=O)c3cccnc3C2=O)c1
